Laboratory results published in patent US20190216767A1, “TOPICAL THERAPY FOR THE TREATMENT OF SKIN KERATOSES USING NANOPARTICLES OF TAXANES” (DFB SORIA, LLC, priority 2017, published 2019).

Legend:
[1] = Observation of paclitaxel nanoparticle crystal growth by light microscopy; assay type: physicochemical
Göttingen minipigs = experiment: Dermal toxicity study (GLP, topical daily for 28 days); assay type: in vivo; conditions: topical daily for 28 days, 0.3, 1.0 and 3%
Procedure: The GLP-compliant study was conducted in Göttingen minipigs to characterize the toxicity of the formulations applied topically to 10% body surface area daily for 28 days. […] Reversibility of findings was also evaluated following a 2-week recovery period. Parameters evaluated included clinical observations, mortality and moribundity checks, dermal scoring, body weight, food consumption, eye examinations, test site photographs, electrocardiology, clinical pathology, bioanalysis and toxicokinetic evaluation, organ weights, macroscopic pathology and histopathology. There were no formulation-related effects on survival, clinical signs, dermal irritation, body weights, body weight gains, food consumption, ophthalmic findings, or cardiology parameters.

[2] = in Aluminum sulfate 0.1-0.2% in water, @ 7 days, RT
[3] = in Ammonium lauryl sulfate 2% in water, @ 3 days, RT
[4] = in Benzalkonium chloride (50%) 2% in water, @ 7 days & 21 days, RT
[5] = in CARBOPOL ULTREZ 10 (with Ammonium hydroxide as neutralizer) 0.5% in water, @ 8 days & 21 days, RT
[6] = in Castor Oil 100%, @ 24 hrs & 9 days, RT
[7] = in Dimethicone, 1000 cSt 100%, @ 24 hrs & 6 days, RT
[8] = in FOMBLIN HC04 100%, @ 4, 7 & 13 days, RT
[9] = in Hydroxyethyl cellulose 1% in water, @ 7 days, RT
[10] = in Hydroxypropyl methylcellulose 1% in water, @ 3 days, RT
[11] = in Lecithin 1% in water, @ 24 hrs, RT
[12] = in Light Mineral Oil NF 100%, @ 3 days, RT & 40 C.
[13] = in Magnesium nitrate 5% in water, @ 3 days, RT
[14] = in Mannitol 5% in water, @ 7 days, RT
[15] = in Mineral Oil USP (heavy) 100%, @ 3 days, RT & 40 C.
[16] = in PEG 400 10% in water, @ 22 days, RT & 60 C.
[17] = in Poloxamer 188 2% in water, @ 7 days, RT
[18] = in Poloxamer 407 2% in water, @ 5 & 7 days, RT
[19] = in Polyoxyl 40 Hydrogenated Castor Oil (KOLLIPHOR RH40) 1% in water, @ 6 days, RT
[20] = in Polysorbate 80 0.5% in Saline, @ 7 days, RT & 60 C.
[21] = in Polysorbate 80 0.5% in water, @ 22 days, RT & 60 C.
[22] = in Povidone 1% in water, @ 7 days & 21 days, RT
[23] = in Proline 3% in water, @ 7 days, RT
[24] = in Purified Water 100%, @ 5 days, RT & 60 C.
[25] = in ST-Cyclomethicone 5 NF 100%, @ 24 hrs & 13 days, RT
[26] = in Saline 0.9% NaCl in water, @ 7 days, RT & 60 C.
[27] = in Sodium lauryl sulfate 2% in water, @ 7 days, RT
[28] = in Sodium phosphate monobasic 0.75% in water, @ 7 days, RT
[29] = in Sorbitol 5% in water, @ 7 days, RT
[30] = in Vitamin E TPGS 0.5% in water, @ 6 days, RT
[31] = in Zinc acetate […] in water, @ 7 days, RT

CC(=O)O[C@H]1C(=O)[C@@]2(C)[C@H]([C@H](OC(=O)c3ccccc3)[C@]3(O)C[C@H](OC(=O)[C@H](O)[C@@H](NC(=O)c4ccccc4)c4ccccc4)C(C)=C1C3(C)C)[C@]1(OC(C)=O)CO[C@@H]1C[C@@H]2O [Paclitaxel nanoparticles, paclitaxel]
negligible effect: effect of the presence of the paclitaxel nanoparticles in the formulations on dermal irritation (Göttingen minipigs)
did not grow: crystal growth of paclitaxel nanoparticles ([1]; in any of the hydrophobic carriers) | crystal growth of paclitaxel nanoparticles ([1]; in aqueous solutions of benzalkonium chloride, CARBOPOL ULTREZ 10, or poloxamer 407)
< 5 μm: Crystal size (visual observation by light microscopy) [1, 4] | Crystal size (visual observation by light microscopy) [1, 5] | Crystal size (visual observation by light microscopy) [1, 6] | Crystal size (visual observation by light microscopy) [1, 7] | Crystal size (visual observation by light microscopy) [1, 8] | Crystal size (visual observation by light microscopy) [1, 12] | Crystal size (visual observation by light microscopy) [1, 15] | Crystal size (visual observation by light microscopy) [1, 18] | Crystal size (visual observation by light microscopy) [1, 19] | Crystal size (visual observation by light microscopy) [1, 21] | Crystal size (visual observation by light microscopy) [1, 22] | Crystal size (visual observation by light microscopy) [1, 25] | Crystal size (visual observation by light microscopy) [1, 30]
Yes: Needle shaped crystals observed? (visual observation by light microscopy) [1, 2] | Needle shaped crystals observed? (visual observation by light microscopy) [1, 3] | Needle shaped crystals observed? (visual observation by light microscopy) [1, 9] | Needle shaped crystals observed? (visual observation by light microscopy) [1, 10] | Needle shaped crystals observed? (visual observation by light microscopy) [1, 11] | Needle shaped crystals observed? (visual observation by light microscopy) [1, 13] | Needle shaped crystals observed? (visual observation by light microscopy) [1, 14] | Needle shaped crystals observed? (visual observation by light microscopy) [1, 16] | Needle shaped crystals observed? (visual observation by light microscopy) [1, 17] | Needle shaped crystals observed? (visual observation by light microscopy) [1, 19] | Needle shaped crystals observed? (visual observation by light microscopy) [1, 20] | Needle shaped crystals observed? (visual observation by light microscopy) [1, 21] | Needle shaped crystals observed? (visual observation by light microscopy) [1, 22] | Needle shaped crystals observed? (visual observation by light microscopy) [1, 23] | Needle shaped crystals observed? (visual observation by light microscopy) [1, 24] | Needle shaped crystals observed? (visual observation by light microscopy) [1, 26] | Needle shaped crystals observed? (visual observation by light microscopy) [1, 27] | Needle shaped crystals observed? (visual observation by light microscopy) [1, 28] | Needle shaped crystals observed? (visual observation by light microscopy) [1, 29] | Needle shaped crystals observed? (visual observation by light microscopy) [1, 30] | Needle shaped crystals observed? (visual observation by light microscopy) [1, 31]
> 5 μm: Crystal size (visual observation by light microscopy) [1, 2] | Crystal size (visual observation by light microscopy) [1, 3] | Crystal size (visual observation by light microscopy) [1, 9] | Crystal size (visual observation by light microscopy) [1, 10] | Crystal size (visual observation by light microscopy) [1, 13] | Crystal size (visual observation by light microscopy) [1, 14] | Crystal size (visual observation by light microscopy) [1, 16] | Crystal size (visual observation by light microscopy) [1, 17] | Crystal size (visual observation by light microscopy) [1, 20] | Crystal size (visual observation by light microscopy) [1, 23] | Crystal size (visual observation by light microscopy) [1, 24] | Crystal size (visual observation by light microscopy) [1, 27] | Crystal size (visual observation by light microscopy) [1, 28] | Crystal size (visual observation by light microscopy) [1, 29] | Crystal size (visual observation by light microscopy) [1, 31]
No: Needle shaped crystals observed? (visual observation by light microscopy) [1, 4] | Needle shaped crystals observed? (visual observation by light microscopy) [1, 5] | Needle shaped crystals observed? (visual observation by light microscopy) [1, 6] | Needle shaped crystals observed? (visual observation by light microscopy) [1, 7] | Needle shaped crystals observed? (visual observation by light microscopy) [1, 8] | Needle shaped crystals observed? (visual observation by light microscopy) [1, 12] | Needle shaped crystals observed? (visual observation by light microscopy) [1, 15] | Needle shaped crystals observed? (visual observation by light microscopy) [1, 18] | Needle shaped crystals observed? (visual observation by light microscopy) [1, 25]
> 10 μm: Crystal size (visual observation by light microscopy) [1, 11] | Crystal size (visual observation by light microscopy) [1, 26]
